Results taken from patent publication US7838271B2, “Microbiological method for producing amides” (priority 2001, dated 2010).
Read-outs that look alike come from different tables or passages of the source.

What was measured:
[1] = tested on: Rhodococcus sp. FZ4 nitrile hydratase; type: cell-based
Protocol: (§1) Nitrile hydratase activity was determined by incubating a reaction mixture comprising 3-cyanopyridine (1.0 M; 1.0 ml), potassium phosphate buffer (0.1 M, pH 7.0; 0.5 ml) and cell suspension (0.5 ml) with stirring at 20° C. for 5 min. The reaction was stopped by adding HCI (5 M; 0.1 ml). After filtration (0.2 μm filter) of the reaction mixture, the amount of nicotinamide produced was determined by means of HPLC (Waters Spherisorb 5 μ ODS2 (4.6×150 mm); KH2P04/H3P04 (10 mM; pH 2.8)/acetonitrile=9:1 (v/v); 1 ml/min; 230 nm). The total activity is expressed as μmol of nicotinamide produced/ (min×ml) and the specific activity is expressed as μmol of nicotinamide produced/(min×ml×OD610 nm).
(§2) The preculture medium of Table 2 was inoculated with strain Rhodococcus sp. FZ4 (DSM 13597), followed by incubation with shaking at 28° C. for 1 to 2 days. The preculture was transferred into the culture medium of Table 5, which contained different inducers, and cultured with shaking at 28° C. for 3 days. Nitrile hydratase activity was determined according to Example 1. Rhodococcus sp.

Rhodococcus sp. FZ4 = type: cell-based
Protocol: as §2

[2] = tested on: purified Rhodococcus sp. FZ4 nitrile hydratase; type: biochemical
Protocol: (§3) A solution comprising nitrile hydratase solution (0.695 μmol/min; 0.025 ml), potassium phosphate buffer (0.1 M; pH 7.0; 0.475 ml), distilled water (0.150 ml) and different potential inhibitors (0.100 ml) was incubated at 20° C. for 5 min. This was followed by the addition of 3-cyanopyridine (1.0 M; 0.250 ml). The concentration of the inhibitors in the reaction mixture was 1.0 mM. The reaction mixture was incubated at 20° C. for 10 min. The reaction was stopped by adding MeOH. The amount of nicotinamide produced was determined by means of HPLC according to Example 1.

[3] = tested on: purified Rhodococcus sp. FZ4 nitrile hydratase; assay: Influence of metal ions on the activity of purified nitrile hydratase; type: biochemical; conditions: no addition = 100
Protocol: as §3
The influence of metal ions on the activity of purified nitrile hydratase was carried out according to Example 24, but with the addition of metal ions instead of potential inhibitors. […]

[4] = tested on: Rhodococcus sp. FZ4 nitrile hydratase; assay: Substrate specificity of nitrile hydratase activity, resting cells; type: cell-based
Protocol: as §1
Rhodococcus sp. FZ4 nitrile hydratase activity with respect to different substrates was determined according to Example 1, except that the appropriate substrate was used instead of 3-cyanopyridine and that the HPLC conditions were modified according to the substrate used.

[5] = tested on: Rhodococcus rhodochrous J1 nitrile hydratase; assay: Substrate specificity of nitrile hydratase activity (comparison strain); type: cell-based
[6] = tested on: purified Rhodococcus sp. FZ4 nitrile hydratase; assay: Substrate specificity of purified nitrile hydratase; type: biochemical
Protocol: A reaction mixture comprising nitrile hydratase solution (0.695 μmol/min; 0.025 ml), different substrates (0.500 ml) and potassium phosphate buffer (0.1 M; pH 7.0; 0.475 ml) was incubated at 20° C. for 5 to 10 min. The concentrations of the substrates used were in the range from 0.015 to 0.250 M. The reaction was stopped by adding MeOH. The amount of amide produced was determined by means of HPLC.

[7] = culture medium with inducer 0.2% (w/v), 28° C., 3 days, substrate 3-cyanopyridine
[8] = culture medium with inducer 0.2% (w/v), 28° C., 3 days

SMILES | Specific activity [1, 7] | Total activity [1, 7] [µmol/min/mL] | Growth (Rhodococcus sp. FZ4; [8]) [OD610 nm] | Relative activity [2] [%] | further results
NC(=O)c1ccncc1 [Isonicotinamide] | 2.17 μmol/(min × ml × OD610 nm) | 10.9 | 5.03 | – | –
O[C@H](CS)[C@H](O)CS (racemic) [Dithiothreitol] | – | – | – | 103 | –
O=S(=O)([O-])[O-].[Zn+2] [ZnSO4] | – | – | – | – | Relative activity ([3]; metal ions 1.0 mM): 121%
[Cl][Ni][Cl] [NiCl2] | – | – | – | – | Relative activity ([3]; metal ions 1.0 mM): 123%
NC(=O)c1ccccc1 [Benzamide] | 2.12 μmol/(min × ml × OD610 nm) | 8.24 | 3.88 | – | –
CCCCC#N [Valeronitrile] | 32.4 μmol/(min × ml × OD610 nm) | 120 | 3.70 | – | –
N#Cc1ccccc1Cl [o-Chlorobenzonitrile] | – | – | – | – | Relative activity [4]: 0%; Relative activity [5]: 2.8%; Relative activity [6]: 0%
CCN1C(=O)C=CC1=O [N-Ethylmaleinimide] | – | – | – | 95.3 | –
NCCS [Cysteamine] | – | – | – | 99.1 | –
Oc1cccc2cccnc12 [8-Hydroxyquinoline] | – | – | – | 97.8 | –
N[C@@H]1CONC1=O [D-Cycloserine] | – | – | – | 86.3 | –
O=C(O)c1cc[c]([Hg][Cl])cc1 [p-Chloromercuribenzoic acid] | – | – | – | 187 | –
O=S(=O)(F)Cc1ccccc1 [Phenylmethanesulfonyl fluoride] | – | – | – | 110 | –
c1ccc(-c2ccccn2)nc1 [2,2′-Bipyridyl] | – | – | – | 97.8 | –
C=CC#N [Acrylonitrile] | 1.81 μmol/(min × ml × OD610 nm) | – | 3.27 | – | Relative activity [4]: 498%; Relative activity [5]: 478%; Relative activity [6]: 774%
CC(C)CC#N [Isovaleronitrile] | 23.2 μmol/(min × ml × OD610 nm) | 74.7 | 3.22 | – | –
NC(N)=O [Urea] | 0.918 μmol/(min × ml × OD610 nm) | 5.66 | 6.16 | 106 | –
OCCS [2-Mercaptoethanol] | – | – | – | 76.3 | –
O=S(=O)(O)c1cc(O)c(O)c(S(=O)(=O)O)c1 [Tiron] | – | – | – | 114 | –
CC(C)C#N [Isobutyronitrile] | 52.1 μmol/(min × ml × OD610 nm) | 273 | 5.24 | – | –
CCCC#N [Butyronitrile] | 58.4 μmol/(min × ml × OD610 nm) | 307 | 5.26 | – | Relative activity [4]: 466%; Relative activity [5]: 26%; Relative activity [6]: 578%
NNc1ccccc1 [Phenylhydrazine] | – | – | – | 84.6 | –
C=C(C)C(N)=O [Methacrylamide] | 125 μmol/(min × ml × OD610 nm) | 569 | 4.55 | – | Relative activity [6]: 1.39%
NO [Hydroxylamine] | – | – | – | 1.34 | –
CC(C)C(N)=O [Isobutyramide] | 109 μmol/(min × ml × OD610 nm) | 387 | 3.55 | – | –
N#Cc1ccc(Cl)cc1 [p-Chlorobenzonitrile] | – | – | – | – | Relative activity [4]: 8.25%; Relative activity [5]: 13%; Relative activity [6]: 8.31%
CCC#N [Propionitrile] | 20.3 μmol/(min × ml × OD610 nm) | 95.8 | 4.72 | – | Relative activity [4]: 412%; Relative activity [5]: 435%; Relative activity [6]: 693%

SMILES | Specific activity [1, 7] | Total activity [1, 7] [µmol/min/mL] | Growth (Rhodococcus sp. FZ4; [8]) [OD610 nm] | Relative activity [2] [%] | further results
O=S(=O)([O-])[O-].[Cu+2] [CuS04] | – | – | – | – | Relative activity ([3]; metal ions 1.0 mM): 177%
[Ca+2].[Cl-].[Cl-] [CaCl2] | – | – | – | – | Relative activity ([3]; metal ions 1.0 mM): 113%
CCC(N)=O [Propionamide] | 28.7 μmol/(min × ml × OD610 nm) | 149 | 5.17 | – | –
C/C=C/C(N)=O [Crotonamide] | 59.9 μmol/(min × ml × OD610 nm) | 558 | 9.32 | – | –
C=C(C)C#N [Methacrylonitrile] | 71.5 μmol/(min × ml × OD610 nm) | 330 | 4.61 | – | Relative activity [4]: 3.64%; Relative activity [5]: 87%
O=C(O)c1cc(SSc2ccc([N+](=O)[O-])c(C(=O)O)c2)ccc1[N+](=O)[O-] [5,5′-Dithiobis(2-nitrobenzoic acid)] | – | – | – | 93.4 | –
[Cl][Mn][Cl] [MnCl2] | – | – | – | – | Relative activity ([3]; metal ions 1.0 mM): 123%
N#Cc1ccccn1 [2-Cyanopyridine] | – | – | – | – | Relative activity [4]: 39.3%; Relative activity [5]: 45%; Relative activity [6]: 36.7%
c1cnc2c(c1)ccc1cccnc12 [1,10-Phenanthroline] | – | – | – | 106 | –
CC=CCC#N [3-Pentenenitrile] | 13.4 μmol/(min × ml × OD610 nm) | 62 | 4.62 | – | –
O=C(O)CI [Iodoacetate] | – | – | – | 96.7 | –
O=[N+]([O-])[O-].[Ag+] [AgNO3] | – | – | – | – | Relative activity ([3]; metal ions 1.0 mM): 0%
O=C1CCCCCN1 [ε-Caprolactam] | 9.08 μmol/(min × ml × OD610 nm) | 40.3 | 4.44 | – | –
[Cl][Hg][Cl] [HgCl2] | – | – | – | – | Relative activity ([3]; metal ions 0.1 mM (footnote b)): 0%
N#Cc1ccncc1 [4-Cyanopyridine] | – | – | – | – | Relative activity [4]: 98.4%; Relative activity [5]: 70%; Relative activity [6]: 92.8%
N#Cc1cccc(Cl)c1 [m-Chlorobenzonitrile] | – | – | – | – | Relative activity [4]: 39.3%; Relative activity [5]: 43%; Relative activity [6]: 66.5%
CCCCCC#N [Caprononitrile] | 23.0 μmol/(min × ml × OD610 nm) | 104 | 4.54 | – | –
N#CCC(N)=O [Cyanoacetamide] | 6.50 μmol/(min × ml × OD610 nm) | 30.9 | 4.75 | – | –
[Cl][Fe]([Cl])[Cl] [FeCl3] | – | – | – | – | Relative activity ([3]; metal ions 1.0 mM): 105%
CCCCC(N)=O [Valeramide] | 57.5 μmol/(min × ml × OD610 nm) | 322 | 5.61 | – | –
CC(C)CCC#N [Isocaprononitrile] | 28.5 μmol/(min × ml × OD610 nm) | 134 | 4.72 | – | –
CCCC(N)=O [Butyramide] | 73.2 μmol/(min × ml × OD610 nm) | 344 | 4.7 | – | –
N#Cc1ccccc1 [Benzonitrile] | – | – | – | – | Specific activity [1]: 7.17 μmol/(min × ml × OD610 nm); Total activity [1]: 40.3 µmol/min/mL; Growth (Rhodococcus sp. FZ4): 5.62 OD610 nm; Relative activity [4]: 41.7%; Relative activity [5]: 27%; Relative activity [6]: 75.6%
O=C(O)CN(CCN(CC(=O)O)CC(=O)O)CC(=O)O [EDTA, Ethylenediaminetetraacetic acid] | – | – | – | 100 | –
C=CC(N)=O [Acrylamide] | – | – | – | – | Specific activity [1]: 11.7 μmol/(min × ml × OD610 nm); Total activity [1]: 60.5 µmol/min/mL; Growth (Rhodococcus sp. FZ4): 5.17 OD610 nm
CC=CC#N [Crotononitrile] | 49.4 μmol/(min × ml × OD610 nm) | 407 | 8.24 | – | Relative activity [4]: 92.1%; Relative activity [5]: 78%; Relative activity [6]: 114%
